{
  "source": "patent US20100130598A1",
  "about": "“METHODS FOR INDUCING PROGRAMMED CELL DEATH” (Novogen Research Pty Ltd., priority 2008, published 2010)",
  "type_in_all_cases": "cell-based, human",
  "key": {"[1]": {"tested_on": "phosphorylated Akt (p-Akt)", "experiment": "Western blot of EOC whole cell lysates for phospho-Akt", "conditions": "EOC cells, 10 g/ml (as printed, FIG. 2 legend), as early as 15 mins post-treatment", "source_text": "(§1) Protein preparation and cellular fractionation. After drug treatment, protein was extracted and measured as previously described (Alvero et al, 2006). For separation of the cytoplasmic and mitochondrial fractions, cell pellets were processed using the ApoAlert™ Cell Fractionation Kit (BD Biosciences, San Jose, Calif.) according to the manufacturer's instructions. For separation of the cytoplasmic and nuclear fractions, pellets were processed using NE-PER Nuclear and Cytoplasmic Extraction (Pierce Biotechnology, Inc., Rockford, Ill.).\n(§2) SDS-PAGE and Western blots. Cell lysates (20 μg protein) were denatured in sample buffer (2.5% SDS, 10% glycerol, 5% β-mercapto-ethanol, 0.15 M Tris (pH=6.8) and 0.01% bromophenol blue) and subjected to 12% SDS-PAGE as previously described (Kamsteeg et al, 2003). […]"}, "[2]": {"tested_on": "phosphorylated mTOR (p-mTOR)", "experiment": "Western blot of EOC whole cell lysates for phospho-mTOR", "conditions": "EOC cells, 10 g/ml (as printed, FIG. 3 legend), 15 mins post-treatment", "source_text": "as §1, §2"}, "8 phospho-proteins": {"tested_on": "8 phospho-proteins", "experiment": "Analysis of phospho-proteins using xMAP technology (Beadlyte 8-plex)", "conditions": "EOC cells, 10 μg/ml", "source_text": "Analysis of phoshpo-proteins using xMAP technology. After treatment, cells were lysed and lysates were used to measure the phosphorylation status of 8 proteins using the Beadlyte® 8-plex Multi-Pathway Signaling kit (Millipore, Billerica, Mass.) according to manufacturer's instructions. Data was acquired using the BioPlex System (BioRad, Hercules, Calif.)."}, "Bid, Bax, Beclin-1": {"tested_on": "Bid, Bax, Beclin-1", "experiment": "Western blot of cell lysates and mitochondrial fractions for Bid, Bax, Beclin-1", "conditions": "EOC cells", "source_text": "as §1\nSDS-PAGE and Western blots. Cell lysates (20 μg protein) were denatured in sample buffer (2.5% SDS, 10% glycerol, 5% β-mercapto-ethanol, 0.15 M Tris (pH=6.8) and 0.01% bromophenol blue) and subjected to 12% SDS-PAGE as previously described (Kamsteeg et al, 2003). The following antibodies and concentrations were used: mouse anti-XIAP (BD, 1:1,000), rabbit anti-MAP LC3 (1:200), rabbit anti-actin (Sigma, 1:10,000), rabbit anti-phosphorylated Akt (Cell Signaling, 1:1,000), rabbit anti-Akt (Cell Signaling, 1:1000), rabbit anti-phosphorylated mTOR (Cell Signaling, 1:1000), rabbit anti-mTOR (Cell Signaling, 1:1000), rabbit anti-cytochrome c (Clontech Laboratories, Inc, Mountainview, Calif., 1:100), rabbit anti-Omi (R&D Systems, Minneapolis, Minn., 1:5000), rabbit anti-Bid (Cell Signaling, 1:1000), mouse anti-Bax (BD Pharmingen, 1:250), rabbit anti-VDAC (Sigma Aldrich, 1:2000), mouse anti-Bcl2 (BD Pharmingen, 1:500), rabbit anti-AIF (Sigma Aldrich, 1:1000), rabbit anti-EndoG (Sigma Aldrich, 1:1000), mouse anti-topoisomerase I (BD Pharmingen, 1:10,000). Proteins were visualized using enhanced chemiluminescence (Pierce, Rockford Ill.)."}, "HPAC cells [3]": {"tested_on": "HPAC cells", "experiment": "Western blot analysis of apoptosis regulatory proteins, p21 and p53, HPAC", "conditions": "10 μM", "source_text": "(§3) Cells. Human pancreatic cell lines HPAC, MIAPaCa-2 and PANC-1 were obtained from the ATCC. (Manassas, Va.). The cells were maintained in DMEM media with Gln and high glucose (Mediatech, Manassas, Va.) with 10% fetal bovine serum (FBS, HyClone, Logan, Utah) and pencillin/streptomycin.\nAntibodies. Antibodies utilised in this study specific to p53 and, p21 were obtained from (Calbiochem, EMD, San Diego, Calif.), Caspase 9, XIAP, COX IV, Bcl2 and Akt (Cell Signaling Technology, Danvers, Mass.), Caspase 2, Cytochrome c and Bid (BD Pharmingen, San Diego, Calif.). GAPDH (RDI, Concord, Mass.) or β-actin (Sigma, St. Louis, Mo.) was used as a housekeeping gene to standardize the protein loading on the gels and blots.\nWestern blot analysis. Cells were seeded on 100 mm tissue culture plates and grown overnight to ˜90% confluence. Cells were then treated with the drug combinations for indicated time points. After the final treatment step, the cells were lysed with 500 μL of a lysis buffer containing 1% Nonidet P-40, 0.1% SDS, 0.5% deoxycholate, 150 mM NaCl, 50 mM Tris-HCl pH7.5, 1 mM EDTA, 1 mM PMSF and protease inhibitors (Roche) on ice for 30 minutes. Cell lysates were harvested with a sterile cell scraper and centrifuged at 15,000×g for 15 minutes to remove cell debris. Protein was assayed by the BCA method (Pierce) and 50 μg aliquots were separated on 12%, T, 2.6%C SDS-PAGE gels. Proteins were electrophoretically transferred to PVDF membranes (Immobilon P, Millipore, Billerica, Mass.) by the wet transfer method. These membranes were probed with specific antibodies and with anti-GAPDH which was used as the housekeeping gene to standardize the protein loading. The blots were developed on X-ray films using HRP-conjugated secondary antibodies (Southern Biotech, Birmingham, Ala.) and a chemiluminescent substrate (ECL, Amersham, N.Y.)."}, "HPAC cells [4]": {"tested_on": "HPAC cells", "experiment": "Mitochondrial membrane potential by FACS (JC-1), HPAC", "conditions": "dose-dependent, 48 hrs of treatment", "protocol": "as §3\n(§4) FACS Analysis. Apoptosis was measured by FACS analysis using Annexin-V-FITC and propidium iodide (PI) (Biovision, Mountain View, Calif.) as probes (Ahn et al., 2003). Mitochondrial membrane potential was measured by FACS analysis using JC-1 (Biovision) as a probe (Ahn et al., 2003). Cell cycle was analyzed on ethanol-fixed, RNaseA-treated cells staining with PI. In each spectrum, 10,000 gated events were recorded and analyzed with a FACSCalibur (BD Biosciences. San Jose, Calif.). All experiments were done in triplicate, error bars represent one standard deviation. Caspase inhibitor I (zVAD-fmk) was obtained from Calbiochem."}, "MIAPaCa-2 cells": {"tested_on": "MIAPaCa-2 cells", "experiment": "Mitochondrial membrane potential by FACS (JC-1), MIAPaCa-2", "conditions": "MIAPaCa-2, dose-dependent, 48 hrs of treatment", "protocol": "as §3, §4"}, "PANC-1 cells [5]": {"tested_on": "PANC-1 cells", "experiment": "Mitochondrial membrane potential by FACS (JC-1), PANC-1", "conditions": "PANC-1, dose-dependent, 48 hrs of treatment", "protocol": "as §3, §4"}, "PANC-1 cells [6]": {"tested_on": "PANC-1 cells", "experiment": "Cell cycle analysis by FACS (PI), PANC-1", "conditions": "PANC-1, 10 μM", "protocol": "as §3, §4"}},
  "data": [
    {"smiles": "COc1ccc(C2c3ccc(O)c(C)c3OCC2c2ccc(O)cc2)cc1", "note": "(centres unmarked) [Compound 1, 3-(4-hydroxyphenyl)-4-(4-methoxyphenyl)-8-methylchroman-7-ol]", "values": [
      {"measurement": "p-Akt level", "setting": "[1]", "value": "strong down-regulation"},
      {"measurement": "p-mTOR level", "setting": "[2]", "value": "down-regulated"},
      {"measurement": "ERK, pJNK, pSTAT5a/b, and pCREB (xMAP phospho-protein panel)", "setting": "8 phospho-proteins", "value": "Up-regulation"},
      {"measurement": "p-S6k (xMAP phospho-protein panel)", "setting": "8 phospho-proteins", "value": "down-regulates"},
      {"measurement": "pIκB, pSTAT3, and p38 (xMAP phospho-protein panel)", "setting": "8 phospho-proteins", "value": "minimal or no effect"},
      {"measurement": "mitochondrial translocation of Bax", "setting": "Bid, Bax, Beclin-1; 10 μg/ml, 2 h post-treatment", "value": "induces mitochondrial translocation"},
      {"measurement": "Beclin-1 translocation to the mitochondria", "setting": "Bid, Bax, Beclin-1; 10 μg/ml, as early as 1 h post-treatment", "value": "translocates to the mitochondria"},
      {"measurement": "activation of Bid", "setting": "Bid, Bax, Beclin-1; 10 μg/ml, total cell lysates", "value": "does not induce"},
      {"measurement": "Beclin-1 message or protein expression (RT-PCR, whole cell lysates)", "setting": "Bid, Bax, Beclin-1; data not shown", "value": "no changes"}
    ]},
    {"smiles": "COc1ccc(C2c3ccc(O)cc3OCC2c2ccc(O)cc2)cc1", "note": "(centres unmarked) [Compound 10, 3-(4-hydroxyphenyl)-4-(4-methoxyphenyl)chroman-7-ol]", "values": [
      {"measurement": "expression of p53", "setting": "HPAC cells [3]; HPAC (wild type p53), by 48 hr", "value": "elevated"},
      {"measurement": "Bid cleavage", "setting": "HPAC cells [3]; HPAC", "value": "transitory increase"},
      {"measurement": "Caspase 2 cleavage", "setting": "HPAC cells [3]; HPAC", "value": "cleaved to a lesser extent"},
      {"measurement": "cleavage of Caspase 3", "setting": "HPAC cells [3]; HPAC", "value": "did not cause significant cleavage"},
      {"measurement": "level of XIAP", "setting": "HPAC cells [3]; HPAC", "value": "reduced"},
      {"measurement": "levels of Bcl2", "setting": "HPAC cells [3]; HPAC", "value": "lowered"},
      {"measurement": "p21", "setting": "HPAC cells [3]; HPAC", "value": "essentially unchanged"},
      {"measurement": "total Akt", "setting": "HPAC cells [3]; HPAC, early timepoint (4 hr)", "value": "reduced"},
      {"measurement": "cleaved caspase 9 (17kd)", "setting": "HPAC cells [3]; HPAC, time course 0-48 hrs", "value": "initial drop in cleaved caspase 9 (17kd) followed by an increase after 16 hr"},
      {"measurement": "mitochondrial depolarization", "setting": "HPAC cells [4]", "value": "depolarized"},
      {"measurement": "mitochondrial depolarization", "setting": "MIAPaCa-2 cells", "value": "depolarized"},
      {"measurement": "mitochondrial depolarization", "setting": "PANC-1 cells [5]", "value": "depolarized"},
      {"measurement": "time of G2/M arrest post treatment", "setting": "PANC-1 cells [6]", "value": "4 to 24", "unit": "h"},
      {"measurement": "time remained in G2/M arrest", "setting": "PANC-1 cells [6]", "value": "at least 48 hrs"}
    ]}
  ]
}
